Assay results: US20070117743A1, “New antitumoral compounds” (priority 2003, published 2007)
Read-outs that look alike come from different tables or passages of the source. Where a SMILES comes first, the peptide text is derived from it. Bridges are numbered along the chain shown (N, C = ends). [ ]: non-standard residue; d: D form. The star is where a group is joined. d(aIle) = CC[C@H](C)[C@@H](N)C(=O)O; d(aThr) = C[C@@H](O)[C@@H](N)C(=O)O; Hexanoyl(5-Me) = CC(C)CCCC(=O)*; dCha = N[C@H](CC1CCCCC1)C(=O)O; Orn = NCCC[C@H](N)C(=O)O; Dhb = C/C=C(\N)C(=O)O

How the values were obtained:
Type in all cases: cell-based, human
[1] = test system: A-549; experiment: SRB colorimetric assay of cell growth and viability, A-549; conditions: 48 hours exposure; for GI50: read-out: GI50 A-549; for CC50: read-out: LC50 A-549
[2] = test system: LNCaP; experiment: SRB colorimetric assay of cell growth and viability, LNCaP; conditions: 48 hours exposure; for GI50: read-out: GI50 LN-caP; for CC50: read-out: LC50 LN-caP
[3] = test system: K-562; experiment: SRB colorimetric assay of cell growth and viability, K-562; conditions: 48 hours exposure; for CC50: read-out: LC50 K-562
[4] = test system: SK-MEL-28; experiment: SRB colorimetric assay of cell growth and viability, SK-MEL-28; conditions: 48 hours exposure; for CC50: read-out: LC50 MEL-28
[5] = test system: DU-145; experiment: SRB colorimetric assay of cell growth and viability, DU-145; conditions: 48 hours exposure
[6] = test system: IGROV-ET; experiment: SRB colorimetric assay of cell growth and viability, IGROV-ET; conditions: 48 hours exposure; for CC50: read-out: LC50 IGROV-ET
[7] = test system: IGROV-1; experiment: SRB colorimetric assay of cell growth and viability, IGROV-1; conditions: 48 hours exposure
[8] = test system: HeLa; experiment: SRB colorimetric assay of cell growth and viability, HeLa; conditions: 48 hours exposure; for CC50: read-out: LC50 HELA
[9] = test system: PANC-1; experiment: SRB colorimetric assay of cell growth and viability, PANC-1; conditions: 48 hours exposure; for CC50: read-out: LC50 PANC-1
[10] = test system: SK-BR-3; experiment: SRB colorimetric assay of cell growth and viability, SK-BR-3; conditions: 48 hours exposure
[11] = test system: LoVo; experiment: SRB colorimetric assay of cell growth and viability, LoVo; conditions: 48 hours exposure; for CC50: read-out: LC50 LOVO
[12] = test system: HT-29; experiment: SRB colorimetric assay of cell growth and viability, HT-29; conditions: 48 hours exposure; for GI50: read-out: GI50 HT-29; for CC50: read-out: LC50 HT-29
[13] = test system: LoVo-Dox; experiment: SRB colorimetric assay of cell growth and viability, LoVo-Dox; conditions: 48 hours exposure; for CC50: read-out: LC50 LOVO-DOX
Summary of the method: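 Absorbance at 490 nm of Tris-solubilized sulforhodamine B gives the read-out after cells are fixed with cold 50% TCA for 60 min at 4° C. Compound exposure lasts 48 hours over 10 to 10^−8 μg/mL. Growth inhibition, total growth inhibition and lethal concentration are calculated from triplicate wells.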

[14] = test system: HeLa-APL; experiment: SRB colorimetric assay of cell growth and viability, HeLa-APL; conditions: 48 hours exposure; for CC50: read-out: LC50 HELA-APL

CC[C@H](C)[C@@H](NC(=O)[C@H](CCCN)NC(=O)[C@H]1CCCN1C(=O)[C@H](NC(=O)[C@@H](NC(=O)[C@@H](NC(=O)[C@H](NC(=O)CCCC(C)C)C(C)C)[C@@H](C)O)C(C)C)C(C)C)C(=O)N[C@H]1C(=O)N[C@H]([C@@H](C)CC)C(=O)N[C@H](C(C)C)C(=O)N[C@@H](Cc2ccccc2)C(=O)NCC(=O)N[C@@H](C(C)C)C(=O)O[C@@H]1C [Compound 65, [Gly^2]-KF] ({Hexanoyl(5-Me)}-[dV]TV[dV][dP][Orn][d(aIle)][d(aThr)][d(aIle)][dV]FGV; ester 8-C)
TGI A-549 ([1]; SRB): 4.99E−06 Molar | GI50 ([1]; SRB): 1950 nM | CC50 ([1]; SRB): ≥ 6890 nM | TGI LN-caP [2]: 6.89E−06 Molar | GI50 [2]: 3480 nM | CC50 [2]: ≥ 6890 nM | GI50 ([3]; SRB): 3000 nM | TGI K-562 ([3]; SRB): 6.89E−06 Molar | CC50 ([3]; SRB): ≥ 6890 nM | GI50 [4]: 1430 nM | TGI MEL-28 [4]: 3.39E−06 Molar | CC50 [4]: ≥ 6890 nM | GI50 [5]: 1170 nM | LC50 (concentration causing 50% net cell kill) [5]: 4440 nM | TGI DU-145 [5]: 2.28E−06 Molar | GI50 [6]: 806 nM | TGI IGROV-ET [6]: 1.69E−06 Molar | CC50 [6]: 3560 nM | GI50 [7]: 1440 nM | LC50 (concentration causing 50% net cell killing) [7]: 4960 nM | TGI IGROV [7]: 2.67E−06 Molar | GI50 ([8]; SRB): 1210 nM | TGI HELA ([8]; SRB): 1.99E−06 Molar | CC50 ([8]; SRB): 3260 nM | GI50 ([9]; SRB): ≥ 6890 nM | TGI PANC-1 ([9]; SRB): 6.89E−06 Molar | CC50 ([9]; SRB): ≥ 6890 nM | GI50 [10]: 1160 nM | LC50 [10]: 4190 nM | TGI SK-BR-3 [10]: 2.21E−06 Molar | GI50 ([11]; SRB): 1030 nM | TGI LOVO ([11]; SRB): 1.98E−06 Molar | CC50 ([11]; SRB): 3810 nM | TGI HT-29 ([12]; SRB): 2.54E−06 Molar | GI50 ([12]; SRB): 1230 nM | CC50 ([12]; SRB): 5280 nM | GI50 ([13]; SRB): 557 nM | TGI LOVO-DOX ([13]; SRB): 1.53E−06 Molar | CC50 ([13]; SRB): 3810 nM | GI50 ([14]; SRB): 2230 nM | TGI HELA-APL ([14]; SRB): 6.89E−06 Molar | CC50 ([14]; SRB): ≥ 6890 nM

C/C=C1\NC(=O)[C@H](Cc2ccccc2)NC(=O)[C@@H](CC2CCCCC2)NC(=O)[C@@H](CC2CCCCC2)NC(=O)[C@H](NC(=O)[C@@H](CC2CCCCC2)NC(=O)[C@H](CCCN)NC(=O)[C@H]2CCCN2C(=O)[C@H](NC(=O)[C@@H](NC(=O)[C@@H](NC(=O)[C@H](NC(=O)CCCC(C)C)C(C)C)[C@@H](C)O)C(C)C)C(C)C)[C@@H](C)OC(=O)[C@H](C(C)C)NC1=O [Compound 11, [D-Cha^4, D-Cha^5, D-Cha^7]-KF] ({Hexanoyl(5-Me)}-[dV]TV[dV][dP][Orn][dCha][d(aThr)][dCha][dCha]F[Dhb]V; ester 8-C)
TGI A-549 [1]: 2.60E−07 Molar | GI50 [1]: 132 nM | CC50 [1]: 511 nM | TGI LN-caP [2]: 1.40E−06 Molar | GI50 [2]: 645 nM | CC50 [2]: 3010 nM | GI50 [3]: 1580 nM | TGI K-562 [3]: 2.56E−06 Molar | CC50 [3]: 4140 nM | GI50 [4]: 455 nM | TGI MEL-28 [4]: 1.28E−06 Molar | CC50 [4]: 3030 nM | GI50 [5]: 220 nM | LC50 (concentration causing 50% net cell kill) [5]: 2640 nM | TGI DU-145 [5]: 8.56E−07 Molar | GI50 [6]: 133 nM | TGI IGROV-ET [6]: 3.03E−07 Molar | CC50 [6]: 1290 nM | GI50 [7]: 190 nM | LC50 (concentration causing 50% net cell killing) [7]: 2990 nM | TGI IGROV [7]: 5.67E−07 Molar | GI50 [8]: 223 nM | TGI HELA [8]: 8.93E−07 Molar | CC50 [8]: 2550 nM | GI50 [9]: 1430 nM | TGI PANC-1 [9]: 2.74E−06 Molar | CC50 [9]: 5250 nM | GI50 [10]: 106 nM | LC50 [10]: 599 nM | TGI SK-BR-3 [10]: 2.52E−07 Molar | GI50 [11]: 97.4 nM | TGI LOVO [11]: 1.99E−07 Molar | CC50 [11]: 406 nM | TGI HT-29 [12]: 1.91E−07 Molar | GI50 [12]: 97.4 nM | CC50 [12]: 377 nM | GI50 [13]: 81.9 nM | TGI LOVO-DOX [13]: 1.64E−07 Molar | CC50 [13]: 326 nM | GI50 [14]: 211 nM | TGI HELA-APL [14]: 8.31E−07 Molar | CC50 [14]: 2320 nM
